{
  "source": "patent US20220194983A1",
  "about": "“PEPTIDE LIGANDS FOR BINDING TO PSMA” (BicycleTx Limited, priority 2018, published 2022)",
  "target": "PSMA (Homo sapiens, UniProt Q04609)",
  "sequence (Q04609 whole entry)": "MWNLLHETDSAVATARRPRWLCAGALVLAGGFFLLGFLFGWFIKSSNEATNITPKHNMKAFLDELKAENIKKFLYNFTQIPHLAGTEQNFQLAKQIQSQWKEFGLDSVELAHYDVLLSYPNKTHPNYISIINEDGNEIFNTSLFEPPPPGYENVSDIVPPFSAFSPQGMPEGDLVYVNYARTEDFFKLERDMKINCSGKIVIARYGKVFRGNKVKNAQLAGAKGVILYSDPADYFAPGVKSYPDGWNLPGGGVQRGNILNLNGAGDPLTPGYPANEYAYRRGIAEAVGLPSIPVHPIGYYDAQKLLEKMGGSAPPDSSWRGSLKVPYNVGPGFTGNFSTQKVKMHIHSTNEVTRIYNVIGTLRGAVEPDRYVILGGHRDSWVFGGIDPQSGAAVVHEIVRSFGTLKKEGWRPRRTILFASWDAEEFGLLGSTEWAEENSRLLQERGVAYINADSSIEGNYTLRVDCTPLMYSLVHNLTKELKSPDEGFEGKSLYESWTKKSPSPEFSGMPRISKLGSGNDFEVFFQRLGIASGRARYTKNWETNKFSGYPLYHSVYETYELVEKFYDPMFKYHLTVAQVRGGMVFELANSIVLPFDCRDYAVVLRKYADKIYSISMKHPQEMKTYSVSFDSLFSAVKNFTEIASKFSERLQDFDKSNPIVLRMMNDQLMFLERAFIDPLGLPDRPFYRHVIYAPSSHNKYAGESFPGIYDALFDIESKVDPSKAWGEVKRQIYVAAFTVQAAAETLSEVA",
  "test": "measured PSMA affinities (ka, kd, KD) of Dap(Me) substituted bicycles, Table 1",
  "assay_type": "binding",
  "conditions": "for ka: association rate; for kd: dissociation rate",
  "note": "Several values for one entry are separate records, joined by “and”; a condition that tells them apart may be missing. Identical values can stand only once.",
  "data": [
    {"substance": "[Ac][dE]V[Dap(Me)]WDCY[Nle][Nle]EDGT[Dap(Me)]A [BCY00009304]", "values": [
      {"measurement": "ka", "result": "1.03E+05", "unit": "M1s1"},
      {"measurement": "kd", "result": "1.24E−02", "unit": "s1"}
    ]},
    {"substance": "[Ac][dE]V[Dap(Me)]WDCF[Nle][Nle]EDGT[Dap(Me)]A [BCY00009300]", "values": [
      {"measurement": "ka", "result": "7.04E+04", "unit": "M1s1"},
      {"measurement": "kd", "result": "1.02E−02", "unit": "s1"}
    ]},
    {"substance": "[Ac][dE]V[Dap(Me)]WDCFY[Nle]EDGT[Dap(Me)]A [BCY00009308]", "values": [
      {"measurement": "ka", "result": "8.73E+04", "unit": "M1s1"},
      {"measurement": "kd", "result": "2.88E−02", "unit": "s1"}
    ]},
    {"substance": "[Glutarate][dE]V[Dap(Me)]WDCF[Nle][Nle]EDGT[Dap(Me)]A [BCY00009313]", "values": [
      {"measurement": "ka", "result": "1.24E+05", "unit": "M1s1"},
      {"measurement": "kd", "result": "9.81E−03", "unit": "s1"}
    ]},
    {"substance": "[Ac][dE]V[Dap(Me)]WDCF[Nle]LEDGT[Dap(Me)]A [BCY00009310]", "values": [
      {"measurement": "ka", "result": "5.93E+04", "unit": "M1s1"},
      {"measurement": "kd", "result": "4.32E−02", "unit": "s1"}
    ]},
    {"substance": "[Ac][dE]V[Dap(Me)][2Nal]DCF[Nle][Nle]EDGT[Dap(Me)]A [BCY00009303]", "values": [
      {"measurement": "ka", "result": "8.74E+04", "unit": "M1s1"},
      {"measurement": "kd", "result": "1.86E−02", "unit": "s1"}
    ]},
    {"substance": "[Ac][dE]V[Dap(Me)]WDCF[Nle][tBuAla]EDGT[Dap(Me)]A [BCY00009311]", "values": [
      {"measurement": "ka", "result": "2.51E+04", "unit": "M1s1"},
      {"measurement": "kd", "result": "3.10E−03", "unit": "s1"}
    ]},
    {"substance": "[Ac][dE]V[Dap(Me)]WDCF[Hse(Me)][Nle]EDGT[Dap(Me)]A [BCY00009305]", "values": [
      {"measurement": "ka", "result": "4.32E+04", "unit": "M1s1"},
      {"measurement": "kd", "result": "5.35E−02", "unit": "s1"}
    ]},
    {"substance": "[Ac][dE]V[Dap(Me)]WDCK[Nle][Nle]EDGT[Dap(Me)]A [BCY00009315]", "values": [
      {"measurement": "ka", "result": "2.81E+04", "unit": "M1s1"},
      {"measurement": "kd", "result": "4.62E−02", "unit": "s1"}
    ]},
    {"substance": "[Ac][dE]V[Dap(Me)]WDCF[Nle][Hse(Me)]EDGT[Dap(Me)]A [BCY00009309]", "values": [
      {"measurement": "ka", "result": "5.17E+04", "unit": "M1s1"},
      {"measurement": "kd", "result": "2.93E−01", "unit": "s1"}
    ]},
    {"substance": "[Ac][dE]V[Dap(Me)]WDCFL[Nle]EDGT[Dap(Me)]A [BCY00009306]", "values": [
      {"measurement": "ka", "result": "9.04E+04", "unit": "M1s1"},
      {"measurement": "kd", "result": "1.97E−02", "unit": "s1"}
    ]},
    {"substance": "[Ac][Gla]V[Dap(Me)]WDCF[Nle][Nle]EDGT[Dap(Me)]A [BCY00009312]", "values": [
      {"measurement": "ka", "result": "1.01E+05 M1s1 and 7.35E+04 M1s1"},
      {"measurement": "kd", "result": "7.77E−03 s1 and 1.21E−02 s1"}
    ]},
    {"substance": "[Ac][dE]V[Dap(Me)]KDCF[Nle][Nle]EDGT[Dap(Me)]A [BCY00009314]", "values": [
      {"measurement": "ka", "result": "3.79E+04", "unit": "M1s1"},
      {"measurement": "kd", "result": "3.86E−02", "unit": "s1"}
    ]},
    {"substance": "[Ac][dE]V[Dap(Me)]WDCF[tBuAla][Nle]EDGT[Dap(Me)]A [BCY00009307]", "values": [
      {"measurement": "ka", "result": "6.71E+04", "unit": "M1s1"},
      {"measurement": "kd", "result": "3.26E−02", "unit": "s1"}
    ]}
  ]
}
